Reference: paper PMC8485799, “Synthesis and Antiprotozoal Profile of 3,4,5‐Trisubstituted Isoxazoles” (ChemistryOpen, 2021)

Key:
[1] = Cytotoxicity assay in mammalian cells (MTT), macrophages, 48 h; assay type: cell-based; settings: mouse, J774 A1 macrophages, pH 7.2; 50 % inhibition of macrophages growth, 48 h, MTT
Protocol: (§1) The antiproliferative activity was determined in promastigote forms of Leishmania amazonensis (WHOM/BR/75/JOSEFA strain) and epimastigote forms of Trypanosoma cruzi (Y strain). The promastigote forms of L. amazonensis were cultured in Warren medium (brain heart infusion, hemin, and folic acid; pH 7.4) supplemented with 10 % fetal bovine serum (FBS) at 25 °C. The epimastigote forms of T.cruzi were cultured in LIT medium (liver infusion tryptose; hemin, and folic acid; pH 7.4) supplemented with 10 % FBS at 28 °C. Cytotoxicity in mammalian cells was determined in fibroblast line (L929) and macrophages (J774 A1). Fibroblasts were cultured in DMEM medium (pH 7.2) supplemented with 10 % FBS at 37 °C in a 5 % CO2 atmosphere. Macrophages were cultured in RPMI‐1640 (pH 7.2) medium supplemented with 10 % FBS at 37 °C in a 5 % CO2 atmosphere.
(§2) Stock solutions of the compounds were prepared in DMSO and then diluted in the respective medium.
(§3) Fibroblast cell (2.5×10^5 cells.mL^−1) suspensions were prepared in DMEM medium supplemented with 10 % FBS and added to 96‐well plates. Then, the plates were incubated at 37 °C in a CO2 atmosphere for 24 h to obtain confluent cell growth. After incubation, cells were treated with different concentrations of compounds diluted in DMEM for 72 h or left untreated. Macrophage (5×10^5 cells.mL^−1) suspensions were prepared in RPMI‐1640 medium supplemented with 10 % FBS and added to 96‐well plates. Then, the plates were incubated at 37 °C in a CO2 atmosphere for 24 h to obtain confluent cell growth. After incubation, cells were treated with different concentrations of compounds diluted in RPMI‐1640 for 48 h or left untreated. After treatment, the medium was removed, and cells were incubated with MTT (2 mg.mL^−1) for 4 h. Then, DMSO was added for solubilization of the formazan and analyzed with a reading microplate reader (BIO‐TEK PowerWave XS spectrophotometer) at […].[20] The percentage of viable cells was calculated in relation to the untreated control group to determine the cytotoxic concentration in 50 % of the cells (CC50). The control groups of each experiment received the same experimental conditions as the treated groups (cell concentration used, temperature, CO2, and incubation time).

[2] = test system: epimastigote forms of Trypanosoma cruzi (Y strain); test: Antiproliferative assay (XTT), epimastigote forms, 96 h; assay type: cell-based; settings: for IC50: Trypanosoma cruzi, epimastigote form, 96 h, XTT, read-out: T. cruzi IC50; for SIT-F, selectivity index (Fibroblast CC50/T. cruzi IC50): fibroblast vs epimastigote; for SIT-M, selectivity index (Macrophages CC50/T. cruzi IC50): macrophages vs epimastigote
Protocol: as §1, §2
(§4) Promastigote forms (1×10^6 parasites.mL^−1) were cultured in 96‐well plates in the presence and absence of different concentrations of compounds diluted in Warren medium supplemented with 10 % FBS and incubated for 72 h. The epimastigote forms (1×10^6 parasites.mL^−1) were cultured in 96‐well plates in the presence and absence of different concentrations of compounds diluted in LIT medium supplemented with 10 % FBS and incubated for 96 h. After treatment, the parasites were incubated with a solution of 2,3‐bis(2‐methoxy‐4‐nitro‐5‐sulfophenyl)‐2H‐tetrazolium‐5‐carboxanilide (XTT; 0.5 mg.mL^−1) and phenazine methanesulfonate activator (PMS; 0.06 mg.mL^−1) in PBS for 4 h. Then, the absorbance was read in a microplate reader (Bio Tek‐Power Wave XS) at 450 nm.[20] The percentage of viable parasites was calculated in relation to the control in order to determine the concentration that inhibits 50 % of the protozoa (IC50). The control groups of each experiment received the same experimental conditions as the treated groups (cell concentration used, temperature, and incubation time).

[3] = Cytotoxicity assay in mammalian cells (MTT), fibroblasts, 72 h; assay type: cell-based; settings: mouse, L929 fibroblast cells, pH 7.2; 50 % inhibition of fibroblast growth, 72 h, MTT
Protocol: as §1, §2, §3

[4] = test system: promastigote forms of Leishmania amazonensis (WHOM/BR/75/JOSEFA strain); test: Antiproliferative assay (XTT), promastigote forms, 72 h; assay type: cell-based; settings: for IC50: Leishmania amazonensis, promastigote form, 72 h, XTT, read-out: L. amazonensis IC50; for SIL-F, selectivity index (Fibroblast CC50/L. amazonensis IC50): fibroblast vs promastigote; for SIL-M, selectivity index (Macrophages CC50/L. amazonensis IC50): macrophages vs promastigote
Protocol: as §1, §2, §4

| Structure (SMILES) | melting point [°C] | CC50 at 48 h [1] [µM] | IC50 [2] [µM] | SIT-F, selectivity index (Fibroblast CC50/T. cruzi IC50) [2] | SIT-M, selectivity index (Macrophages CC50/T. cruzi IC50) [2] | CC50 at 72 h [3] [µM] | IC50 [4] [µM] | SIL-F, selectivity index (Fibroblast CC50/L. amazonensis IC50) [4] | SIL-M, selectivity index (Macrophages CC50/L. amazonensis IC50) [4] |
| --- | --- | --- | --- | --- | --- | --- | --- | --- | --- |
| CCOC(=O)c1noc(-c2ccc(Cl)cc2)c1CNc1ccccc1 [2 da] | 172.9 to 173.4 | 155 ± 3 | 32.9 ± 3.7 | 4.80 | 4.70 | 158 ± 7.7 | 29.9 ± 2.1 | 5.28 | 5.17 |
| CCOC(=O)c1noc(-c2ccc(Cl)cc2)c1CNc1ccc(Cl)cc1 [2 db] | 173.3 to 175.4 | 87.9 ± 4.6 | 22.4 ± 2.6 | 4.44 | 3.92 | 99.5 ± 5.7 | 21.6 ± 2.2 | 4.61 | 4.07 |
| NNC(=O)c1noc(-c2ccc([N+](=O)[O-])cc2)c1CNc1ccccc1 [3 aa, 3‐Carbohydrazide‐4‐(phenyl)aminomethyl‐5‐(4‐nitrophenyl)isoxazole] | 189 to 190.4 | 142.8 ± 0.8 | 39.8 ± 3.6 | 4.98 | 3.59 | 198 ± 9.5 | 42.1 ± 1.3 | 4.71 | 3.39 |
| NNC(=O)c1noc(-c2ccc([N+](=O)[O-])cc2)c1CNc1ccc(Cl)cc1 [3 ab] | 174.1 to 176.8 | 91.7 ± 3.8 | 12.1 ± 0.9 | 8.12 | 7.58 | 98.3 ± 4.1 | 15.7 ± 0.4 | 6.26 | 5.84 |
| COc1ccc(NCc2c(C(=O)NN)noc2-c2ccc([N+](=O)[O-])cc2)cc1 [3 ac] | 144.2 to 146.8 | 403 ± 11.5 | 82.9 ± 3.4 | 6.02 | 4.86 | 499 ± 2.7 | 76.7 ± 0.6 | 6.51 | 5.25 |
| COc1ccc(NCc2c(C(=O)N/N=C/c3ccccc3)noc2-c2ccc([N+](=O)[O-])cc2)cc1 [4 ac] | – | 209 ± 8.5 | 18.7 ± 1.4 | 12.89 | 11.19 | 241 ± 3.8 | 14.5 ± 2.2 | 16.63 | 14.43 |
| O=C(N/N=C/c1ccccn1)c1noc(-c2ccc([N+](=O)[O-])cc2)c1CNc1ccc(Cl)cc1 [5 ab] | – | 94.2 ± 3.9 | 24.7 ± 2.9 | 4.08 | 3.81 | 101 ± 4.4 | 26 ± 2.1 | 3.88 | 3.55 |
| COc1ccc(NCc2c(C(=O)N/N=C/c3ccccn3)noc2-c2ccc([N+](=O)[O-])cc2)cc1 [5 ac] | – | 723.6 ± 3 | > 200 | – | – | 801 ± 10.4 | > 200 | – | – |
| COc1ccc(NCc2c(C(=O)N/N=C/c3ccccn3)noc2-c2ccccc2)cc1 [5 bc] | – | 177 ± 9.8 | 19.4 ± 1.1 | 9.50 | 9.11 | 184 ± 5.1 | 17.9 ± 3.7 | 10.3 | 9.88 |
| COc1ccc(NCc2c(C(=O)N/N=C/c3ccccn3)noc2-c2ccc(F)cc2)cc1 [5 cc] | – | 255 ± 8.1 | 19.7 ± 0.9 | 14.76 | 12.96 | 291 ± 4.7 | 18 ± 2.5 | 16.16 | 14.18 |
| O=C(N/N=C/c1ccc(-c2cccs2)s1)c1noc(-c2ccc([N+](=O)[O-])cc2)c1CNc1ccc(Cl)cc1 [6 ab] | – | 95.3 ± 5.3 | 13.8 ± 1.5 | 8.39 | 6.91 | 116 ± 5.5 | 12.7 ± 1.1 | 9.12 | 7.50 |
| COc1ccc(NCc2c(C(=O)N/N=C/c3ccc(-c4cccs4)s3)noc2-c2ccc([N+](=O)[O-])cc2)cc1 [6 ac] | – | 184 ± 3 | 52.5 ± 2.9 | 4.40 | 3.50 | 231 ± 5.9 | 48.9 ± 7.1 | 4.72 | 3.75 |
| O=C(N/N=C/c1ccc(-c2cccs2)s1)c1noc(-c2ccccc2)c1CNc1ccccc1 [6 ba] | – | 196 ± 4.4 | 52.4 ± 2.9 | 3.98 | 3.75 | 209 ± 2.9 | 46.9 ± 3 | 4.45 | 4.19 |
| O=C(N/N=C/c1ccc(-c2cccs2)s1)c1noc(-c2ccc(F)cc2)c1CNc1ccccc1 [6 ca] | – | – | 42.7 ± 5.6 | 9.07 | 7.22 | 388 ± 4.7 | 34.6 ± 2.4 | 11.2 | 8.92 |
| O=C(N/N=C/c1ccc(-c2cccs2)s1)c1noc(-c2ccc(F)cc2)c1CNc1ccc(Cl)cc1 [6 cb] | – | 210 ± 3.1 | 20.4 ± 3.6 | 10.5 | 10.3 | 215 ± 8.9 | 19.7 ± 2.6 | 10.9 | 10.6 |
| COc1ccc(NCc2c(C(=O)N/N=C/c3ccc(-c4cccs4)s3)noc2-c2ccc(F)cc2)cc1 [6 cc] | – | 267 ± 7.9 | 22.8 ± 3 | 13.84 | 11.71 | 316 ± 10.8 | 20.6 ± 1.7 | 15.32 | 12.97 |
| O=C(N/N=C/c1ccc(-c2cccs2)s1)c1noc(-c2ccc(Cl)cc2)c1CNc1ccc(Cl)cc1 [6 db] | – | 300 ± 4.2 | 33.6 ± 4.8 | 9.21 | 8.94 | 310 ± 3.1 | 38.5 ± 4.6 | 8.04 | 7.81 |
